Holding throughout (assay type): functional
Experiment [1] deals with Staphylococcus aureus. Kind of experiment: Antibacterial activity against Staphylococcus aureus ATCC 25923 by microdilution technique. In general terms: Dilution methods test growth across graded concentrations, often in twofold steps.
In experiment [2] the test system is Staphylococcus aureus. As to the kind of experiment: Antibacterial activity against Staphylococcus aureus K1640 bearing S84L mutant GyrA and S80Y mutant GrlA by microdilution technique.
Experiment [3] deals with Staphylococcus aureus. As to the kind of experiment: Antibacterial activity against Staphylococcus aureus SA-K1902 bearing norA- deficient mutation by microdilution technique.
The test system of experiment [4] is Staphylococcus aureus. Kind of experiment: Antibacterial activity against Staphylococcus aureus K1035 bearing wild-type GyrA and S80F mutant GrlA by microdilution technique.
In experiment [5] the test system is Staphylococcus aureus. Kind of experiment: Antibacterial activity against Staphylococcus aureus SA-K1904 bearing norA++ efficient mutation by microdilution technique.
The test system of experiment [6] is Escherichia coli. Kind of experiment: Antibacterial activity against Escherichia coli ATCC 25922 by microdilution technique.
Experiment [7] has as its system Staphylococcus aureus. Kind of experiment: Antibacterial activity against wild-type norA expressing Staphylococcus aureus SA-1199 by microdilution technique.
Experiment [8] has as its system Staphylococcus aureus. As to the kind of experiment: Antibacterial activity against methicillin and ciprofloxacin-resistant Staphylococcus aureus 25A by microdilution technique.
The test system of experiment [9] is Staphylococcus aureus. Kind of experiment: Antibacterial activity against Staphylococcus aureus K1134 bearing wild-type GyrA and S80Y mutant GrlA by microdilution technique.
The subject of experiment [10] is Staphylococcus aureus. Kind of experiment: Antibacterial activity against Staphylococcus aureus K1305 bearing wild-type GyrA and E84K mutant GrlA by microdilution technique.
Experiment [11] concerns Staphylococcus aureus. Kind of experiment: Antibacterial activity against Staphylococcus aureus SA-1199B norA++ and A116E GrlA mutation by microdilution technique.
Experiment [12] has as its system Staphylococcus aureus. Kind of experiment: Antibacterial activity against Staphylococcus aureus K1628 bearing S84L mutant GyrA and S80F mutant GrlA by microdilution technique.

In brackets after ≈: the same amount, converted by molar mass. Some results are limits rather than exact numbers.

As usually defined, the MIC is the lowest concentration that inhibits growth of the organism. A low value points to greater potency. As for `O=C(O)c1cn(C2CC2)c2cc(N3CCC4=C(C3)C(O)CCS4)c(F)cc2c1=O` (configuration not stated), the MIC is 0.08 µg/mL (≈ 0.192 µM) in experiment [1]; greater than 10 µg/mL in experiment [2]; 0.04 µg/mL (≈ 0.096 µM) in experiment [3]; 0.63 µg/mL (≈ 1.51 µM) in [4]; 0.16 µg/mL (≈ 0.384 µM) in experiment [5]; 64 µg/mL (≈ 154 µM) in [6]. The MIC in experiment [7] is 0.04 µg/mL (≈ 0.096 µM); in experiment [8] it was 8 µg/mL (≈ 19.2 µM); in experiment [9], 1.25 µg/mL (≈ 3 µM); in [10], 0.63 µg/mL (≈ 1.51 µM); in experiment [11], 0.16 µg/mL (≈ 0.384 µM); in [12] it was greater than 10 µg/mL.

In the case of `Cc1c(N2CCc3ccccc3C2)c(N)cc2c(=O)c(C(=O)O)cn(C3CC3)c12`, the MIC in [1] is no more than 0.12 µg/mL; in [2] it was 0.63 µg/mL (≈ 1.62 µM); in [3] it was no more than 0.02 µg/mL; in experiment [4], no more than 0.02 µg/mL; in [5], no more than 0.02 µg/mL; in [6], no more than 0.12 µg/mL. Besides, the MIC in [7] was no more than 0.02 µg/mL; in experiment [8], no more than 0.12 µg/mL; in experiment [9], no more than 0.02 µg/mL; in [10], no more than 0.02 µg/mL; in [11] it was no more than 0.02 µg/mL; in experiment [12] it was 1.25 µg/mL (≈ 3.21 µM).

Turning to `Cc1c(N2CCC3=C(C2)C(=O)C(C)CS3)c(N)cc2c(=O)c(C(=O)O)cn(C3CC3)c12` (configuration not stated), the MIC is 0.08 µg/mL (≈ 0.182 µM) in experiment [1]; greater than 10 µg/mL in [2]; 0.16 µg/mL (≈ 0.364 µM) in [3]; 1.25 µg/mL (≈ 2.84 µM) in experiment [4]; 0.16 µg/mL (≈ 0.364 µM) in experiment [5]; 64 µg/mL (≈ 146 µM) in experiment [6]. In addition, the MIC in experiment [7] is 0.16 µg/mL (≈ 0.364 µM); in experiment [8] it was 32 µg/mL (≈ 72.8 µM); in experiment [9], 1.25 µg/mL (≈ 2.84 µM); in [10] it was 1.25 µg/mL (≈ 2.84 µM); in experiment [11] it was 0.31 µg/mL (≈ 0.705 µM); in experiment [12] it was greater than 10 µg/mL.

On to `CO/N=C1\CCSC2=C1CN(c1cc3c(cc1N)c(=O)c(C(=O)O)cn3C1CC1)CC2`, for which the MIC is 2 µg/mL (≈ 4.54 µM) in [1]; 1.56 µg/mL (≈ 3.54 µM) in experiment [3]; 3.13 µg/mL (≈ 7.11 µM) in experiment [5]; 16 µg/mL (≈ 36.3 µM) in experiment [6]; 3.13 µg/mL (≈ 7.11 µM) in experiment [7]; 8 µg/mL (≈ 18.2 µM) in experiment [8]. In experiment [11], this compound displayed an MIC of 12.5 µg/mL (≈ 28.4 µM).

As to `CC1CSC2=C(CN(c3cc4c(cc3N)c(=O)c(C(=O)O)cn4C3CC3)CC2)/C1=N/O` (configuration not stated), the MIC in [1] came to 6.25 µg/mL (≈ 14.2 µM); in experiment [3], 1.56 µg/mL (≈ 3.54 µM); in experiment [5], 3.13 µg/mL (≈ 7.11 µM); in experiment [6] it was 32 µg/mL (≈ 72.6 µM); in experiment [7], 1.56 µg/mL (≈ 3.54 µM); in experiment [8], 32 µg/mL (≈ 72.6 µM). The lowest concentration to inhibit growth in experiment [11] (MIC) was 6.25 µg/mL (≈ 14.2 µM).

Turning to `O=C(O)c1cn(C2CC2)c2cc(N3CCNCC3)c(F)cc2c1=O` [CIPROFLOXACIN], the MIC in experiment [1] was 0.5 µg/mL (≈ 1.51 µM); in [2] it was greater than 10 µg/mL; in experiment [3], 0.31 µg/mL (≈ 0.936 µM); in [4], 2.5 µg/mL (≈ 7.54 µM); in [5], 2.5 µg/mL (≈ 7.54 µM); in experiment [6] it was no more than 0.12 µg/mL. For the same compound, the MIC is 0.31 µg/mL (≈ 0.936 µM) in experiment [7]; 32 µg/mL (≈ 96.6 µM) in experiment [8]; 2.5 µg/mL (≈ 7.54 µM) in experiment [9]; 2.5 µg/mL (≈ 7.54 µM) in experiment [10]; 10 µg/mL (≈ 30.2 µM) in experiment [11]; greater than 10 µg/mL in experiment [12].

As for `O=C1CCSC2=C1CN(c1cc3c(cc1F)c(=O)c(C(=O)O)cn3C1CC1)CC2`, the minimal inhibitory concentration (MIC) in experiment [1] was 0.08 µg/mL (≈ 0.193 µM); in experiment [3] it was 0.31 µg/mL (≈ 0.748 µM); in [5], 0.63 µg/mL (≈ 1.52 µM); in [6] it was 8 µg/mL (≈ 19.3 µM); in experiment [7] it was 1.56 µg/mL (≈ 3.76 µM); in experiment [8], greater than 128 µg/mL. Moreover, in experiment [11], the MIC turned out to be 3.13 µg/mL (≈ 7.55 µM).

With `O=C(O)c1cn(C2CC2)c2cc(N3CCC4=C(C3)/C(=N/O)CCS4)c(F)cc2c1=O`, the MIC in experiment [1] is 2 µg/mL (≈ 4.66 µM); in experiment [3] it was 0.63 µg/mL (≈ 1.47 µM); in experiment [5] it was 0.63 µg/mL (≈ 1.47 µM); in [6] it was 1 µg/mL (≈ 2.33 µM); in experiment [7], 0.63 µg/mL (≈ 1.47 µM); in experiment [8] it was 2 µg/mL (≈ 4.66 µM). In experiment [11], this compound had an MIC of 2.5 µg/mL (≈ 5.82 µM).

Consider `Nc1cc2c(=O)c(C(=O)O)cn(C3CC3)c2cc1N1CCC2=C(C1)/C(=N/O)CCS2`, for which the MIC worked out at 2 µg/mL (≈ 4.69 µM) in experiment [1]; 1.56 µg/mL (≈ 3.66 µM) in experiment [3]; 6.25 µg/mL (≈ 14.7 µM) in experiment [5]; 2 µg/mL (≈ 4.69 µM) in [6]; 1.56 µg/mL (≈ 3.66 µM) in experiment [7]; 16 µg/mL (≈ 37.5 µM) in experiment [8]. The same compound registered an MIC in experiment [11] of 12.5 µg/mL (≈ 29.3 µM).

Take `Cc1c(N2CCC3=C(C2)/C(=N/O)C(C)CS3)c(N)cc2c(=O)c(C(=O)O)cn(C3CC3)c12` (configuration not stated): the MIC worked out at 0.16 µg/mL (≈ 0.352 µM) in experiment [1]; 0.31 µg/mL (≈ 0.682 µM) in experiment [3]; 0.31 µg/mL (≈ 0.682 µM) in experiment [5]; 0.5 µg/mL (≈ 1.1 µM) in experiment [6]; 0.31 µg/mL (≈ 0.682 µM) in experiment [7]; 8 µg/mL (≈ 17.6 µM) in [8]. The compound also yielded an MIC in experiment [11] of 1.25 µg/mL (≈ 2.75 µM).

Consider `CC1CSC2=C(CN(c3cc4c(cc3F)c(=O)c(C(=O)O)cn4C3CC3)CC2)/C1=N/O` (configuration not stated), for which the MIC in experiment [1] is 0.31 µg/mL (≈ 0.699 µM); in experiment [2], greater than 10 µg/mL; in [3] it was 0.16 µg/mL (≈ 0.361 µM); in experiment [4] it was 1.25 µg/mL (≈ 2.82 µM); in experiment [5], 0.31 µg/mL (≈ 0.699 µM); in [6], 32 µg/mL (≈ 72.2 µM). In addition, the MIC is 0.16 µg/mL (≈ 0.361 µM) in experiment [7]; 4 µg/mL (≈ 9.02 µM) in experiment [8]; 1.25 µg/mL (≈ 2.82 µM) in experiment [9]; 1.25 µg/mL (≈ 2.82 µM) in [10]; 0.31 µg/mL (≈ 0.699 µM) in experiment [11]; greater than 10 µg/mL in experiment [12].

(Values after ChEMBL document CHEMBL1155486, “From 6-aminoquinolone antibacterials to 6-amino-7-thiopyranopyridinylquinolone ethyl esters as inhibitors of Staphylococcus aureus multidrug efflux pumps” (2010).)
